In experiment [1] the test system is chronic immobilization stress C57BL/6 mice. To be noted: stress group, peptide diet vs normal diet. On the procedure: A total of 28 male C57BL/6 mice at 7 weeks of age were divided into two groups: a control group (CTL) and a stress group (STR). The stress group was subjected to chronic immobilization stress for 15 days. Specifically, each mouse in the stress group was individually placed in a restrainer for 2 hours daily from […] to induce chronic immobilization stress. The control group (CTL) and stress group (STR) were further classified based on their diets. […] After the completion of the 15-day chronic immobilization stress, the mice were subjected to a sucrose preference test (SPT). Blood samples and prefrontal cortex (PFC) tissues were collected from the mice for subsequent test.
For the analysis of anti-depressive effect, blood and PFC tissues were collected from mice that underwent chronic immobilization stress. The blood collected from mice was centrifuged at 1,000×g for 10 minutes at 4° C. to separate the plasma, and the supernatant was collected and diluted 1/20 with PBS to prepare a sample. The corticosterone concentration in the plasma was then measured using the Corticosterone EIA kit (Cayman) by following the manufacturer's instructions.
In addition, the plasma diluted with PBS at a ⅓ ratio and the PFC tissue lysate (50 μg) were prepared. The ROS/RNS (reactive oxygen species/reactive nitrogen species) level in the plasma and PFC tissues was measured using the ROS/RNS assay kit (Cell Biolabs) according to the manufacturer's instructions.
In addition, the depression was evaluated by measuring the sucrose preference of mice that had undergone 15 days of chronic immobilization stress. The sucrose preference test was conducted over a total of 4 days. Equal amounts of 0.1 M sucrose solution and water were provided in identical bottles of the same size and shape. On the first day, mice were given access to 0.1 M sucrose solution and water for 24 hours. On the second day, the positions of the sucrose solution and water bottles were switched, and mice were given access for 24 hours. On the third day, no sucrose solution or water was provided. On the fourth day, mice were again given access to equal amounts of 0.1 M sucrose solution and water for 3 hours, the positions were then switched, and access was provided for another 3 hours. The amount of sucrose solution and water consumed during the 6-hour period on the fourth day was measured, and the sucrose preference (%) was calculated according to the following formula.
Sucrose preference (%)=Sucrose intake amount/(Water intake amount+Sucrose intake amount)×100

Experiment [2] has as its system renal ischemia-reperfusion C57BL/6 mice. The note with it: 100 mg/kg oral, 24 hours of reperfusion. On the procedure: Male C57BL/6 mice weighing 23 to 25 g were housed in a germ-free facility with controlled temperature and humidity. They were allowed free access to water and food. […] Renal ischemia was induced by midline laparotomy and occlusion of both renal pedicles using a Müller atraumatic vascular clamp for 25 minutes, followed by removal of the clamp for reperfusion. Control group (sham) underwent the same surgical procedures except the induction of ischemia using clamp. After 24 hours of reperfusion, the mice were sacrificed, and blood was collected from the heart, and the kidney tissue was harvested.
The collected blood was centrifuged at 3,000 rpm for 15 minutes to separate the serum, and the serum creatinine level, an indicator for evaluating kidney damage, was measured using the Jaffe method. The Jaffe method involves measuring the absorbance of the serum sample at 510 nm wavelength after reacting it with picric acid and then terminating the reaction with 60% acetic acid followed by measurement of absorbance, and calculating the concentration of creatinine in mg/mL units based on the difference in absorbance.
The total RNA was extracted from the kidney tissues using the Trizol method, and cDNA was synthesized using the RevertAid Reverse Transcription System (ThermoFisher). Quantitative PCR (qPCR) for inflammatory cytokines (IL-1β, IL-6, and MCP-1) was performed using the iQ SYBR Green Supermix (Bio-Rad) on the CFX Connect Real-Time PCR system (Bio-Rad). The relative amount of the target mRNA, normalized to GAPDH, was analyzed using the […].
The kidney tissue was homogenized in RIPA buffer, and protein quantification was performed using the BCA method. Western blot was then carried out using antibodies against nitrotyrosine and 4-hydroxynonenal (4-HNE), i.e., a product of lipid peroxidation.

Experiment [3] concerns azoxymethane (AOM) hyperammonemia C57BL/6 mice. Briefly: Azoxymethane-induced hyperammonemia model. In kind it is in vivo. The protocol: They were allowed free access to water and food. The mice were divided into four groups: (1) control group (Control), (2) hyperammonemia group administered with water (Veh+AOM), (3) hyperammonemia group administered with 100 mg/kg YQ peptide (YQ100+AOM), and (4) hyperammonemia group administered with 200 mg/kg YQ peptide (YQ200+AOM). YQ peptide was administered orally once a day for four consecutive days. On the fourth day, 2 hours after the last oral administration of YQ peptide, azoxymethane (AOM) at a dose of 100 mg/kg was intraperitoneally injected to induce hyperammonemia. To prevent dehydration 12 hours after AOM administration, 200 μl of physiological saline containing 0.5% glucose were injected into the abdominal cavity.
Ammonia is a primary metabolite of amino acids and nucleic acids, and the main enzymes involved in the conversion of ammonia into urea in urea cycle are found only in liver cells. In addition, the liver tissue is also rich in enzymes such as GS (glutamine synthetase) and SOD (superoxide dismutase), which help lower ammonia level, and catalase which removes reactive oxygen species. Therefore, a change in blood ammonia level as it travels from the liver to the brain through the bloodstream serves as an important indicator of hepatic encephalopathy. Accordingly, to measure the amount of blood ammonia, a PocketChem BA PA-4140 analyzer (Arkray, Japan), which is a single-wavelength reflectance measurement analyzer, was utilized. The analyzer measures the absorbance at 635 nm (LED) wavelength after the reaction 20 μl of blood with the test strip at room temperature for 3 minutes.
Western blot analysis was performed using an antibody against nitrotyrosine.

Experiment [4] deals with glutamine synthetase (GS). Briefly: Hippocampal glutamine synthetase activity in kainic acid epileptic seizure model.
Experimental: Kainic acid (KA) was dissolved in saline by heating in a water bath, resulting in a 4.5 mg/ml KA solution. The resulting KA solution was then intraperitoneally injected at a dose of 36 mg/kg, and seizure level and symptoms were recorded for 2 hours. The brain tissues (prefrontal cortex and hippocampus) of the mice that survived 16 hours or 5 days after the KA injection were collected.
To a 96-well plate, 2 μl of hippocampal homogenate was added, and 50 μl of 50 mM imidazole-HCl buffer (pH 6.8) were added to adjust the volume to 50 μl. Then, 50 μl of GS assay buffer (50 mM imidazole-HCl, pH 6.8, 25 mM L-glutamine, 12.5 mM hydroxylamine, 12.5 mM sodium arsenate, 1 mM MnCl2, and 0.08 mM ADP) were added and the reaction was allowed to occur at 37° C. for approximately 40 minutes. […] To terminate the reaction, 100 μl of stop solution (90 mM FeCl3, 1.8 N HCl, and 1.45% w/v trichloroacetic acid) were added to both the samples and the standard substance, and the absorbance was measured at 560 nm. The GS activity in each sample was determined by comparing it with the standard curve. GS activity was expressed as the generation amount of γ-glutamylhydroxamate, which is produced as a final product, and described in unit of μM/min/μg protein.
Setting [5] is: YQ200+AOM (200 mg/kg) vs veh+AOM, p<0.05.

We go through one substance from patent publication US20240050513A1, “COMPOSITION FOR PREVENTING, AMELIORATING, OR TREATING DISEASE CAUSED BY PROTEIN NITRATION […] WITH TERMINAL TYROSINE AS EFFECTIVE COMPONENT” (INDUSTRY-ACADEMIC COOPERATION FOUNDATION GYEONGSANG …, priority 2021, published 2024).

Turning to tyrosine-glutamine [YQ], in experiment [1], the “ROS/RNS level in PFC tissue” value is on record as “decreased” and the sucrose preference result is given as “increased”. Moreover, in experiment [2] (Western blot), the “lipid peroxidation (4-HNE) in the kidney tissue” value is “significantly reduced” and the “proteins with nitrated tyrosine in the kidney tissue” value is reported as “significantly reduced”. Further, in experiment [2] (qPCR), the “increase in expression level of IL-1β in kidney tissue” value is recorded as “statistically significantly inhibited”, the “increase in expression level of IL-6 in kidney tissue” value is on record as “statistically significantly inhibited” and the “increase in expression level of MCP-1 in kidney tissue” value is on record as “statistically significantly inhibited”. Moreover, in experiment [3] (setting [5]), the “expression level of nitrotyrosine in liver tissues” value is listed as “statistically significant decrease” and the serum ammonia concentration entry is “statistically significant decrease”. In addition, the “increase in blood ammonia caused by AOM” value in experiment [3] (YQ oral once a day four days (100 or 200 mg/kg)) is reported as “significantly suppressed”. The “nitrotyrosine protein level in the liver tissue” value in experiment [3] (YQ oral once a day four days, after AOM) is listed as “significantly reduced”. In experiment [4] (kainic acid-treated animals, YQ i.p vs normal diet), the “activity of glutamine synthetase” value is “statistically significantly increased”. Besides, the “activity of the glutamine synthetase in the hippocampal tissue” value in experiment [4] (survived mice after kainic acid, 3xYQ) was “increased”.
